# From the OligoGym collection
# Oligonucleotides are written 5' to 3', each unit as a sugar letter and its base; * is a phosphorothioate linkage, no mark a phosphodiester; rarer units and linkages stand in square brackets, end groups in braces. Plain capitals give the bases only. d = 2'-deoxy (DNA); r = 2'-OH (RNA)
# Target: UBE2W
# Assay: reporter assay of Huesken 2005
# Details: siRNA
# Further: test concentration or dose not given here.
row,Substance,normalised inhibition (eCFP-eYFP dual reporter) [%]
1,sense rArArArArUrUrCrArArUrUrArCrArCrArGrUrGdTdT / antisense rCrArCrUrGrUrGrUrArArUrUrGrArArUrUrUrUdGdA,76.8
2,sense rArArCrUrUrCrUrArUrUrUrArArArUrUrUrArGdTdT / antisense rCrUrArArArUrUrUrArArArUrArGrArArGrUrUdGdA,96.1
3,sense rArArGrArGrArCrGrArCrCrArCrCrGrGrArUrAdTdT / antisense rUrArUrCrCrGrGrUrGrGrUrCrGrUrCrUrCrUrUdTdT,82.7
4,sense rArArGrArGrUrGrUrUrCrArArArArUrUrCrArAdTdT / antisense rUrUrGrArArUrUrUrUrGrArArCrArCrUrCrUrUdCdT,114
5,sense rArArUrCrArGrUrUrUrGrUrCrUrUrArGrCrArUdTdT / antisense rArUrGrCrUrArArGrArCrArArArCrUrGrArUrUdGdG,104
6,sense rArArUrUrArCrArCrArGrUrGrGrArUrUrGrUrAdTdT / antisense rUrArCrArArUrCrCrArCrUrGrUrGrUrArArUrUdGdA,112
7,sense rArArUrUrUrCrArArCrUrUrCrUrArUrUrUrArAdTdT / antisense rUrUrArArArUrArGrArArGrUrUrGrArArArUrUdTdT,97.5
8,sense rArCrArCrArGrUrGrGrArUrUrGrUrArGrArCrAdTdT / antisense rUrGrUrCrUrArCrArArUrCrCrArCrUrGrUrGrUdAdA,99.3
9,sense rArCrArGrUrGrGrArUrUrGrUrArGrArCrArUrGdTdT / antisense rCrArUrGrUrCrUrArCrArArUrCrCrArCrUrGrUdGdT,110
10,sense rArCrCrArCrCrGrGrArUrArArUrUrCrUrUrUrUdTdT / antisense rArArArArGrArArUrUrArUrCrCrGrGrUrGrGrUdCdG,96.7
11,sense rArCrUrGrGrUrCrCrCrCrArGrCrGrCrUrCrUrCdTdT / antisense rGrArGrArGrCrGrCrUrGrGrGrGrArCrCrArGrUdCdT,93.1
12,sense rArGrArArGrArCrUrGrGrUrCrCrCrCrArGrCrGdTdT / antisense rCrGrCrUrGrGrGrGrArCrCrArGrUrCrUrUrCrUdGdT,88.4
13,sense rArGrArArUrCrCrArArArGrArArArArCrArArAdTdT / antisense rUrUrUrGrUrUrUrUrCrUrUrUrGrGrArUrUrCrUdTdG,106
14,sense rArGrArGrUrGrUrUrCrArArArArUrUrCrArArUdTdT / antisense rArUrUrGrArArUrUrUrUrGrArArCrArCrUrCrUdTdC,109
15,sense rArGrCrArUrUrArUrUrArGrCrArUrGrCrUrUrUdTdT / antisense rArArArGrCrArUrGrCrUrArArUrArArUrGrCrUdAdA,84.8
16,sense rArGrGrUrGrCrArCrCrArGrGrUrArCrCrUrUrAdTdT / antisense rUrArArGrGrUrArCrCrUrGrGrUrGrCrArCrCrUdTdC,93.2
17,sense rArGrUrArGrUrCrGrArUrArUrCrCrUrUrUrUrGdTdT / antisense rCrArArArArGrGrArUrArUrCrGrArCrUrArCrUdAdA,124
18,sense rArGrUrCrGrArUrArUrCrCrUrUrUrUrGrArCrUdTdT / antisense rArGrUrCrArArArArGrGrArUrArUrCrGrArCrUdAdC,81.4
19,sense rArUrCrArGrUrUrUrGrUrCrUrUrArGrCrArUrUdTdT / antisense rArArUrGrCrUrArArGrArCrArArArCrUrGrArUdTdG,107
20,sense rArUrCrCrUrCrArUrGrUrUrUrArUrArGrCrArAdTdT / antisense rUrUrGrCrUrArUrArArArCrArUrGrArGrGrArUdGdA,104
21,sense rArUrCrUrGrUrUrUrArUrCrCrArUrUrCrUrArAdTdT / antisense rUrUrArGrArArUrGrGrArUrArArArCrArGrArUdAdT,96.6
22,sense rArUrGrArCrCrUrUrArArArUrGrArGrArArGrAdTdT / antisense rUrCrUrUrCrUrCrArUrUrUrArArGrGrUrCrArUdTdC,68.9
23,sense rArUrGrGrArArGrGrUrGrCrArCrCrArGrGrUrAdTdT / antisense rUrArCrCrUrGrGrUrGrCrArCrCrUrUrCrCrArUdGdT,86.1
24,sense rArUrGrUrGrCrGrArArCrArUrGrUrArArCrArAdTdT / antisense rUrUrGrUrUrArCrArUrGrUrUrCrGrCrArCrArUdAdA,88.7
25,sense rArUrGrUrUrUrArUrArGrCrArArUrGrGrUrCrAdTdT / antisense rUrGrArCrCrArUrUrGrCrUrArUrArArArCrArUdGdA,96.2
26,sense rArUrUrArGrCrArUrGrCrUrUrUrCrCrArGrCrUdTdT / antisense rArGrCrUrGrGrArArArGrCrArUrGrCrUrArArUdAdA,67.5

row,Substance,normalised inhibition (eCFP-eYFP dual reporter) [%]
1,sense rCrArArGrGrArArArArGrArGrArCrGrArCrCrAdTdT / antisense rUrGrGrUrCrGrUrCrUrCrUrUrUrUrCrCrUrUrGdCdA,110
2,sense rCrArCrArGrUrGrGrArUrUrGrUrArGrArCrArUdTdT / antisense rArUrGrUrCrUrArCrArArUrCrCrArCrUrGrUrGdTdA,115
3,sense rCrArGrUrCrCrArArUrCrArGrUrUrUrGrUrCrUdTdT / antisense rArGrArCrArArArCrUrGrArUrUrGrGrArCrUrGdAdG,122
4,sense rCrArUrUrArUrUrArGrCrArUrGrCrUrUrUrCrCdTdT / antisense rGrGrArArArGrCrArUrGrCrUrArArUrArArUrGdCdT,93.2
5,sense rCrCrArArArGrArArArArCrArArArArUrGrGrUdTdT / antisense rArCrCrArUrUrUrUrGrUrUrUrUrCrUrUrUrGrGdAdT,101
6,sense rCrCrUrCrCrUrGrGrArArUrGrArCrCrUrUrArAdTdT / antisense rUrUrArArGrGrUrCrArUrUrCrCrArGrGrArGrGdTdG,99.3
7,sense rCrGrArUrArUrCrCrUrUrUrUrGrArCrUrCrUrCdTdT / antisense rGrArGrArGrUrCrArArArArGrGrArUrArUrCrGdAdC,85.7
8,sense rCrUrArUrUrUrArArArUrUrUrArGrUrArGrUrCdTdT / antisense rGrArCrUrArCrUrArArArUrUrUrArArArUrArGdAdA,83.5
9,sense rCrUrCrCrUrGrGrArArUrGrArCrCrUrUrArArAdTdT / antisense rUrUrUrArArGrGrUrCrArUrUrCrCrArGrGrArGdGdT,100
10,sense rCrUrGrGrUrGrArArArArUrArUrUrCrCrUrGrUdTdT / antisense rArCrArGrGrArArUrArUrUrUrUrCrArCrCrArGdTdA,108
11,sense rCrUrGrUrUrCrArUrCrCrUrCrArUrGrUrUrUrAdTdT / antisense rUrArArArCrArUrGrArGrGrArUrGrArArCrArGdGdA,113
12,sense rCrUrUrUrCrCrArGrCrUrGrCrArArGrGrArArAdTdT / antisense rUrUrUrCrCrUrUrGrCrArGrCrUrGrGrArArArGdCdA,103
13,sense rGrArArGrArCrUrGrGrUrCrCrCrCrArGrCrGrCdTdT / antisense rGrCrGrCrUrGrGrGrGrArCrCrArGrUrCrUrUrCdTdG,80.5
14,sense rGrArCrArUrGrGrArArGrGrUrGrCrArCrCrArGdTdT / antisense rCrUrGrGrUrGrCrArCrCrUrUrCrCrArUrGrUrCdTdA,94.9
15,sense rGrArCrCrArCrCrGrGrArUrArArUrUrCrUrUrUdTdT / antisense rArArArGrArArUrUrArUrCrCrGrGrUrGrGrUrCdGdT,96.4
16,sense rGrArGrArArGrArGrUrGrUrUrCrArArArArUrUdTdT / antisense rArArUrUrUrUrGrArArCrArCrUrCrUrUrCrUrCdAdT,116
17,sense rGrCrArArGrGrArArArArGrArGrArCrGrArCrCdTdT / antisense rGrGrUrCrGrUrCrUrCrUrUrUrUrCrCrUrUrGrCdAdG,112
18,sense rGrCrGrCrUrCrUrCrArGrUrCrCrArArUrCrArGdTdT / antisense rCrUrGrArUrUrGrGrArCrUrGrArGrArGrCrGrCdTdG,109
19,sense rGrGrUrCrArUrGrUrUrUrArCrUrGrGrUrGrArAdTdT / antisense rUrUrCrArCrCrArGrUrArArArCrArUrGrArCrCdTdG,103
20,sense rGrUrGrArArArArUrArUrUrCrCrUrGrUrUrCrAdTdT / antisense rUrGrArArCrArGrGrArArUrArUrUrUrUrCrArCdCdA,82
21,sense rGrUrGrCrGrArArCrArUrGrUrArArCrArArGrAdTdT / antisense rUrCrUrUrGrUrUrArCrArUrGrUrUrCrGrCrArCdAdT,125
22,sense rGrUrUrCrArArArArUrUrCrArArUrUrArCrArCdTdT / antisense rGrUrGrUrArArUrUrGrArArUrUrUrUrGrArArCdAdC,73.6
23,sense rGrUrUrCrArUrCrCrUrCrArUrGrUrUrUrArUrAdTdT / antisense rUrArUrArArArCrArUrGrArGrGrArUrGrArArCdAdG,105
24,sense rUrArArCrArArGrArArUrCrCrArArArGrArArAdTdT / antisense rUrUrUrCrUrUrUrGrGrArUrUrCrUrUrGrUrUrAdCdA,115
25,sense rUrArArCrArGrArArGrArCrUrGrGrUrCrCrCrCdTdT / antisense rGrGrGrGrArCrCrArGrUrCrUrUrCrUrGrUrUrAdGdA,64.7
26,sense rUrArCrCrUrUrArUrArUrGrArArGrGrGrGrArAdTdT / antisense rUrUrCrCrCrCrUrUrCrArUrArUrArArGrGrUrAdCdC,111
